15 compounds from ChEMBL document CHEMBL1133363, “Discovery and evaluation of potent, tyrosine-based alpha4beta1 integrin antagonists” (Bioorg Med Chem Lett, 2000) can be followed below.

Data set [1] concerns the target T1, Integrin alpha-4/beta-1 (Homo sapiens, UniProt P05556+P13612). In words: Inhibition of alpha4-beta1 VCAM binding in Jurkat cell adhesion assay. It counts as cell-based.
In data set [2] the target is T1, Integrin alpha-4/beta-1. In words: Affinity for alpha4-beta1 integrin from HL60 cell lysate. It counts as cell-based, HL-60.
The nature of data set [3]: Half life stability of compound was evaluated in rat plasma. The data set is classed as ADME, organism-based.
A further data set addresses Integrin alpha-5/beta-1 (Homo sapiens, UniProt P05556+P08648). In words: Inhibition of alpha5-beta1 integrin mediated cell adhesion. It counts as protein-complex assay.
Data set [4] addresses Intercellular adhesion molecule (ICAM-1), Integrin alpha-L/beta-2 (Homo sapiens, UniProt P05107+P05362+P20701). In words: Inhibition of alphaL-beta2 mediated cell adhesion. The data set is classed as protein-complex assay.
The target in data set [5] is Integrin alpha-IIb/beta-3 (Homo sapiens, UniProt P05106+P08514). In words: The antagonist activity was evaluated by alphaIlb-beta3 cell assay. The data set is classed as functional.
Sequence of Integrin alpha-IIb/beta-3 (P05106 27-788 limits assumed): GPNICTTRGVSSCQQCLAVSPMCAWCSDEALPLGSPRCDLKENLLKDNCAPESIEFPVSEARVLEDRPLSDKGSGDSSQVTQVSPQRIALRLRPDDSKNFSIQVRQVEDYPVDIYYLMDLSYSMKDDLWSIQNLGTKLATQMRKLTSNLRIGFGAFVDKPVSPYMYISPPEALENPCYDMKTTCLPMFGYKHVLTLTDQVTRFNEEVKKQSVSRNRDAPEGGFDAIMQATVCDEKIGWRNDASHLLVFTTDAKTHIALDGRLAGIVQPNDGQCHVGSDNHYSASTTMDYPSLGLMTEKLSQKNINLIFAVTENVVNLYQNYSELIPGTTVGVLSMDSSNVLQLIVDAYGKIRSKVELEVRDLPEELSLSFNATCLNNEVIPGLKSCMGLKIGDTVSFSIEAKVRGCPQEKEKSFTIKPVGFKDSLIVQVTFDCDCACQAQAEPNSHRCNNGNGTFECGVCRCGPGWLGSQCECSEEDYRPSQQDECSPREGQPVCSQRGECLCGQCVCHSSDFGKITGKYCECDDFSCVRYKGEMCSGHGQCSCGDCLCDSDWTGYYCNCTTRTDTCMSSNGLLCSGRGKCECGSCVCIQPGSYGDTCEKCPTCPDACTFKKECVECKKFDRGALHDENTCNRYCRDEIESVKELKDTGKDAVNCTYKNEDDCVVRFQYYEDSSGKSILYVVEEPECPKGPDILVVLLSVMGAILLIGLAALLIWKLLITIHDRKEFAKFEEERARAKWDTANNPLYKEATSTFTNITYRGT
Sequence of Integrin alpha-IIb/beta-3 (P08514 32-887 limits assumed): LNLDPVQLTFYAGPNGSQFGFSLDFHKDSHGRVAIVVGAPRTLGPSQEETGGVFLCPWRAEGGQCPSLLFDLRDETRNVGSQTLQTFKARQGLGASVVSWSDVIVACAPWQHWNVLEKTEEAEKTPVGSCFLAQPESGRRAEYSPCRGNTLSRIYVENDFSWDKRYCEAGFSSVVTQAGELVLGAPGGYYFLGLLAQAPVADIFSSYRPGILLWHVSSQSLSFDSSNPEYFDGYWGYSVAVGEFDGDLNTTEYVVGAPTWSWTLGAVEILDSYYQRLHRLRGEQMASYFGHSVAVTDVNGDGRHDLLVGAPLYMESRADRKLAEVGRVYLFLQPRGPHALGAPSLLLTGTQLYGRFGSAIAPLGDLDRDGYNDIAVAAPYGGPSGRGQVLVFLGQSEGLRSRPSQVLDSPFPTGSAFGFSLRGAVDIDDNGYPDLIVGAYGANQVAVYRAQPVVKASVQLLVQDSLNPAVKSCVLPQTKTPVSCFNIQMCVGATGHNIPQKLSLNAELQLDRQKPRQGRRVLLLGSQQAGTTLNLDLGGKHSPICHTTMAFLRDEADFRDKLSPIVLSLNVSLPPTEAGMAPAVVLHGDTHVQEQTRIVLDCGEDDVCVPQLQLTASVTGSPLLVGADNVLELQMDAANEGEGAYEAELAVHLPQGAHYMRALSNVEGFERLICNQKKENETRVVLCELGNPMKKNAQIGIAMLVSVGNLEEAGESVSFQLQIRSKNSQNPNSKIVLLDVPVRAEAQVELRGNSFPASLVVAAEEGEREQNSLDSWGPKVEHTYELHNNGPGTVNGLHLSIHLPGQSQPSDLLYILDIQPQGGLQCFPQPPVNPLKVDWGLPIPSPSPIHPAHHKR
Sequence of Integrin alpha-IIb/beta-3 (P08514 891-1039 limits assumed): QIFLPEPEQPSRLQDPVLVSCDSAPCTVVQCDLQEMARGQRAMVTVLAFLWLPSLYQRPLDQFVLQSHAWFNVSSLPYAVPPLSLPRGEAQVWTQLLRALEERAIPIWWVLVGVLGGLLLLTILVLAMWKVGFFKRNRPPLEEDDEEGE
Another data set addresses Integrin alpha-M/beta-2 (Homo sapiens, UniProt P05107+P11215). In words: Inhibition of alphaM-beta2 mediated cell adhesion. It counts as protein-complex assay.
The next data set deals with Integrin alpha-V/beta-3 (Homo sapiens, UniProt P05106+P06756). In words: Inhibition of alphaV-beta3 mediated cell adhesion. It counts as protein-complex assay.
Sequence of Integrin alpha-V/beta-3 (P05106 27-788 limits assumed): as the sequence (P05106 27-788 limits assumed) above
Sequence of Integrin alpha-V/beta-3 (P06756 31-889 limits assumed): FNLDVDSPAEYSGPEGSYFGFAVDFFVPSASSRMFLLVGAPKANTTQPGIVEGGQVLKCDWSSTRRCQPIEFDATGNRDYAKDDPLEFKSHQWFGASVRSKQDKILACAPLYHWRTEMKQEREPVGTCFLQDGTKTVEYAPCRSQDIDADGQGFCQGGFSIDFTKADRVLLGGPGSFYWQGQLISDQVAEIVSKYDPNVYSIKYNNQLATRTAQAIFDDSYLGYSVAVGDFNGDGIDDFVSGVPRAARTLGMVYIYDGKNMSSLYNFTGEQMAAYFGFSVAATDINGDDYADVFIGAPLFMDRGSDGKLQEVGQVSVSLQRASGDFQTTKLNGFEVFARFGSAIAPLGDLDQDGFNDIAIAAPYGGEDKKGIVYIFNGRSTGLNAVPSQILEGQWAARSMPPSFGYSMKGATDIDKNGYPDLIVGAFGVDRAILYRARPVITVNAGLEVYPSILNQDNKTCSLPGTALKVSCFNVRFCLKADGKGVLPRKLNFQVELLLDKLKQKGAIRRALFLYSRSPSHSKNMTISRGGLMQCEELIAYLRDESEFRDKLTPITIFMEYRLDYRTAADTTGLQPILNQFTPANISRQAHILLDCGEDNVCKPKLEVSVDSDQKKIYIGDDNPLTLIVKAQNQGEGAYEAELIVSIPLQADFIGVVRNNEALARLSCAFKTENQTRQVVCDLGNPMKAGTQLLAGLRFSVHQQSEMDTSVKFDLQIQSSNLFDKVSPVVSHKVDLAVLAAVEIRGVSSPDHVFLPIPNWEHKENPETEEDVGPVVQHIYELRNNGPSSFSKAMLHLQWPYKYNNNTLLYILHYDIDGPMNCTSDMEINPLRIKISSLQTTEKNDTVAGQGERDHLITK
Sequence of Integrin alpha-V/beta-3 (P06756 891-1048 limits assumed): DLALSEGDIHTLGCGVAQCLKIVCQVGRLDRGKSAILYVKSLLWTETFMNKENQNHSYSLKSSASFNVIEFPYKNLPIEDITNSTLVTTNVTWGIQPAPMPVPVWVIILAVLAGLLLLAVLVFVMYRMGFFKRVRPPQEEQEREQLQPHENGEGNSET
The target of another data set is T2, Integrin alpha-4/beta-7 (Homo sapiens, UniProt P13612+P26010).
T2 sequence (P13612 whole entry): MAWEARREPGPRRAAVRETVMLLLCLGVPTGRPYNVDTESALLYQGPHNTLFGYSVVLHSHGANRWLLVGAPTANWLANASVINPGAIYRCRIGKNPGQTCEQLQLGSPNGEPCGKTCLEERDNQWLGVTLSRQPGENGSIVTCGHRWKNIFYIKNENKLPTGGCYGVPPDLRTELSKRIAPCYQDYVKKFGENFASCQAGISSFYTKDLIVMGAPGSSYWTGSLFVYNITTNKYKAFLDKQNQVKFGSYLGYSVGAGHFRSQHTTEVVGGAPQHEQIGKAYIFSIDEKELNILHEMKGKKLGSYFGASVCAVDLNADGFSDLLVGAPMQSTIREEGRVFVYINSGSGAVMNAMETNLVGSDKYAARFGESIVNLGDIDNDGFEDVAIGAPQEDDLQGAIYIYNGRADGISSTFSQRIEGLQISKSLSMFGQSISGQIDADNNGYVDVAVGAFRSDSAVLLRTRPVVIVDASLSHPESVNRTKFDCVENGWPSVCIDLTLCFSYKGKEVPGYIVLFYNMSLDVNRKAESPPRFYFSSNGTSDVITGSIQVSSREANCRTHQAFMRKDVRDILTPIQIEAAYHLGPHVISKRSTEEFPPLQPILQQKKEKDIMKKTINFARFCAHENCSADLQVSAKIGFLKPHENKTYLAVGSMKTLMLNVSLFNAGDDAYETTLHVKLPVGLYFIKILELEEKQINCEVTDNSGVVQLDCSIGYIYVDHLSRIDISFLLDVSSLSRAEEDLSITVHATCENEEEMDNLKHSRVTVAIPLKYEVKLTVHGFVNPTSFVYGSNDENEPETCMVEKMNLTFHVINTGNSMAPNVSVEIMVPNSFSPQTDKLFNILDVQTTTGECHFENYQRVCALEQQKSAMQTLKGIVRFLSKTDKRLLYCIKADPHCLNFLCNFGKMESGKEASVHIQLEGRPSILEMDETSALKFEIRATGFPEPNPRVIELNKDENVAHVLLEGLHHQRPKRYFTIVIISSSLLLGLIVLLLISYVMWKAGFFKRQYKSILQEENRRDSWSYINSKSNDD
T2 sequence (P26010 whole entry): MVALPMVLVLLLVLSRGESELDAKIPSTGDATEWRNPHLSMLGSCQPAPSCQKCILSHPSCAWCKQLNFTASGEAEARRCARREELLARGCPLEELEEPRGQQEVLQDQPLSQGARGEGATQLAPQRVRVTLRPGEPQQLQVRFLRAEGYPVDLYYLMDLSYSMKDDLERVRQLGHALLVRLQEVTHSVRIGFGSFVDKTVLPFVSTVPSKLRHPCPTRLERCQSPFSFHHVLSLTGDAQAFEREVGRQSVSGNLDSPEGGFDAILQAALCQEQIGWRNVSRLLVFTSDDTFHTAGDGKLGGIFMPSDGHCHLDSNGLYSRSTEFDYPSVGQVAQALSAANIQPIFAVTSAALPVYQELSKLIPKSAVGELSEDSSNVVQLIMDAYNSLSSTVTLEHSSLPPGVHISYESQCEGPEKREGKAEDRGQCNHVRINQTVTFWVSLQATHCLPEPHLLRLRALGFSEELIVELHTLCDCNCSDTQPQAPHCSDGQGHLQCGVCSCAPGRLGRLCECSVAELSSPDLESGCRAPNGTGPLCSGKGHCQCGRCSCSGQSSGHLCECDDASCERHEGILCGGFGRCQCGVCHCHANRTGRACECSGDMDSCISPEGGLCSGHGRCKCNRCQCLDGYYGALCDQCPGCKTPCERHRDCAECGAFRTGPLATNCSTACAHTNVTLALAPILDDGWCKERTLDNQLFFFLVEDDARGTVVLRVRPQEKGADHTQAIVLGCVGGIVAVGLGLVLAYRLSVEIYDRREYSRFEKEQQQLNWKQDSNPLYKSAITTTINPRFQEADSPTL
In words: Inhibition of alpha4-beta7 integrin mediated cell adhesion. The data set is classed as protein-complex assay.

Square brackets hold non-standard residues; d marks the D form. Peptide text beside a SMILES is read from it. Thz = O=C(O)[C@@H]1CSCN1

T1 sequence (P05556 whole entry, one chain of several): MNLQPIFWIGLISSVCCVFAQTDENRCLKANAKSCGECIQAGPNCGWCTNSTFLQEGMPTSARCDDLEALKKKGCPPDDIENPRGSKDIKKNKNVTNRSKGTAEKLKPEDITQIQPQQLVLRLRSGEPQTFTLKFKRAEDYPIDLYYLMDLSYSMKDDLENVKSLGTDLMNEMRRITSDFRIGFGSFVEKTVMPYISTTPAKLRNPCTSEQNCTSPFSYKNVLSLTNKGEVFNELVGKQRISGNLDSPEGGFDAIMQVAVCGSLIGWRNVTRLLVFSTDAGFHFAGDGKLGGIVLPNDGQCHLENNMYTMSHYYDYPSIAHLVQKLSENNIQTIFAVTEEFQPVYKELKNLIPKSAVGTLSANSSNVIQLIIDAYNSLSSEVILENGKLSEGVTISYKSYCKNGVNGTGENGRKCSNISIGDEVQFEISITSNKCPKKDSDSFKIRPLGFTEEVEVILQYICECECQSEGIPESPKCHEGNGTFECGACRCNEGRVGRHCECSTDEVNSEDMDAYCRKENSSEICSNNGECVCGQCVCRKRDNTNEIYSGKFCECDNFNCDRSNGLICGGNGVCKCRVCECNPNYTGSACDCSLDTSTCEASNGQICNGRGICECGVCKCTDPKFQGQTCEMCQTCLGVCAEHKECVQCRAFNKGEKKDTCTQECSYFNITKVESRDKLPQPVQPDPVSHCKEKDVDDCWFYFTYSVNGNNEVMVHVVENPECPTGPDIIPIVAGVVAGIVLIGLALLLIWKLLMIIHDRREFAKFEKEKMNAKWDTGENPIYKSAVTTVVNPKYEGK
Sequence of Integrin alpha-M/beta-2 (P05107 23-769 limits assumed, other chains not shown): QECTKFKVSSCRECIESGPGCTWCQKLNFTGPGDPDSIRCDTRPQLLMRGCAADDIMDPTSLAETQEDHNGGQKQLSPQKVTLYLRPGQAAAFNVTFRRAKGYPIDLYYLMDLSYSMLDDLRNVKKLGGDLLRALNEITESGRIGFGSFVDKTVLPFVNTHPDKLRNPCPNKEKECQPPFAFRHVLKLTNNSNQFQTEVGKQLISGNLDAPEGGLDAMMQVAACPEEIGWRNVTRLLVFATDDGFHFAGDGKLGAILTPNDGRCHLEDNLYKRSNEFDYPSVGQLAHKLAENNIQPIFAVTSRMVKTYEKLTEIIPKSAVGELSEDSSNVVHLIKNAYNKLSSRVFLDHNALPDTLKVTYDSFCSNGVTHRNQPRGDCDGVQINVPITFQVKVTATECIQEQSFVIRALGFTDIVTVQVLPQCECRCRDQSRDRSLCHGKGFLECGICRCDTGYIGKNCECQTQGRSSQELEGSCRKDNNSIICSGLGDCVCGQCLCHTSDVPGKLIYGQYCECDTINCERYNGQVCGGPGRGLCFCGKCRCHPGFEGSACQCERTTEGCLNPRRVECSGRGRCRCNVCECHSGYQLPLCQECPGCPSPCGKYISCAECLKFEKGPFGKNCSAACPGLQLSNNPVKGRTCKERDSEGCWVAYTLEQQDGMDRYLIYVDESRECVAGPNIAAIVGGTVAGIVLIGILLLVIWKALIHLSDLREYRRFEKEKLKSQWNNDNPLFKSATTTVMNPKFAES

Take `CC(=O)N1CSC[C@@H]1C(=O)N[C@@H](Cc1ccc(OCc2ccccc2C(F)(F)F)cc1)C(=O)O`: the IC50 was found to be 170 nM at Integrin alpha-4/beta-1 [1] and 15 nM on Integrin alpha-4/beta-1 [2].

In the case of `CC(=O)N1CSC[C@@H]1C(=O)N[C@@H](Cc1ccc(OCc2c(Cl)cccc2Cl)cc1)C(=O)O`, the half-life in [3] is greater than 12 h. For the same compound, the half-maximal inhibitory concentration (IC50) against Integrin alpha-5/beta-1 is greater than 800000 nM; on Integrin alpha-4/beta-1 [1], 34 nM; at Integrin alpha-4/beta-1 [2], 5 nM; in [4], greater than 200000 nM; in data set [5], greater than 400000 nM; at Integrin alpha-M/beta-2, greater than 400000 nM. In addition, the IC50 on Integrin alpha-V/beta-3 was greater than 800000 nM; on Integrin alpha-4/beta-7, 190 nM.

For the compound `CC(=O)N1CSC[C@H]1C(=O)N[C@@H](Cc1ccccc1)C(=O)O` (Ac-[Thz]-Phe-OH), the IC50 was found to be 35200 nM on Integrin alpha-4/beta-1 [1] and 360 nM against Integrin alpha-4/beta-1 [2].

Take `COc1cccc(OC)c1COc1ccc(C[C@H](NC(=O)[C@H]2CSCN2C(C)=O)C(=O)O)cc1`: the results for the IC50 on Integrin alpha-4/beta-1 [1] and on Integrin alpha-4/beta-1 [2] were 40 nM and 2 nM, respectively.

As to `CC(=O)N1CSC[C@@H]1C(=O)N[C@@H](Cc1ccc(OCc2ccccc2)cc1)C(=O)O`, in [3], the half-life was greater than 12 h. Also, the IC50 at Integrin alpha-4/beta-1 [1] came to 1480 nM; on Integrin alpha-4/beta-1 [2] it was 25 nM.

Regarding `CC(=O)N1CSC[C@H]1C(=O)N[C@@H](Cc1ccc(OCc2ccccc2)cc1)C(=O)O`, the values for the IC50 at Integrin alpha-4/beta-1 [1] and at Integrin alpha-4/beta-1 [2] were 19500 nM and 220 nM, respectively.

Turning to `CC(=O)N1CSC[C@H]1C(=O)N[C@@H](Cc1ccc(O)cc1)C(=O)O` (Ac-[Thz]-Tyr-OH), the results for the IC50 on Integrin alpha-4/beta-1 [1] and against Integrin alpha-4/beta-1 [2] were 263000 nM and 2740 nM, respectively.

For the compound `CC(=O)N1CSC[C@@H]1C(=O)N[C@@H](Cc1ccc(OCc2c(F)cccc2F)cc1)C(=O)O`, the IC50 at Integrin alpha-4/beta-1 [1] came out at 60 nM; against Integrin alpha-4/beta-1 [2] it was 3 nM.

In data set [3], `CC(=O)N1CSC[C@@H]1C(=O)N[C@@H](Cc1ccc(OC(=O)C23CC4CC(CC(C4)C2)C3)cc1)C(=O)O` had a half-life of 2.3 h. Further, the IC50 was 140 nM on Integrin alpha-4/beta-1 [1] and 12 nM at Integrin alpha-4/beta-1 [2].

Turning to `CC(=O)N1CSC[C@H]1C(=O)N[C@@H](CSCCCNC(=O)C12CC3CC(CC(C3)C1)C2)C(=O)O`, the IC50 was 8040 nM at Integrin alpha-4/beta-1 [1] and 90 nM against Integrin alpha-4/beta-1 [2].

As to `CC(=O)N1CSC[C@@H]1C(=O)N[C@@H](Cc1ccc(OCc2cc(Cl)cc(Cl)c2)cc1)C(=O)O`, the IC50 on Integrin alpha-4/beta-1 [1] worked out at 150 nM; on Integrin alpha-4/beta-1 [2], 17 nM.

In data set [3], `CC(=O)N1CSC[C@@H]1C(=O)N[C@@H](Cc1ccc(OC(=O)c2ccccc2)cc1)C(=O)O` showed a half-life of 1.6 h. Moreover, the IC50 on Integrin alpha-4/beta-1 [1] was determined as 170 nM; at Integrin alpha-4/beta-1 [2] it was 4 nM.

As for `CC(=O)N1CSC[C@@H]1C(=O)N[C@@H](Cc1ccc(OC(=O)c2c(Cl)cccc2Cl)cc1)C(=O)O`, the half-life in data set [3] is greater than 12 h. Further, the IC50 at Integrin alpha-4/beta-1 [1] worked out at 24 nM; against Integrin alpha-4/beta-1 [2] it was 6 nM.

For the compound `COc1ccc(C[C@H](NC(=O)[C@@H]2CSCN2C(C)=O)C(=O)O)cc1` (Ac-[Thz]-Tyr(Me)-OH), the IC50 on Integrin alpha-4/beta-1 [1] worked out at 76600 nM; against Integrin alpha-4/beta-1 [2] it was 310 nM.

As to `CC(=O)N1CSC[C@@H]1C(=O)N[C@@H](Cc1ccc(OCc2c(Cl)cc(Cl)cc2Cl)cc1)C(=O)O`, the IC50 at Integrin alpha-4/beta-1 [1] was found to be 35 nM; on Integrin alpha-4/beta-1 [2] it was 9 nM.

For orientation: IC50 means the concentration that inhibits the measured activity by half. Low readings indicate inhibition by little substance, high ones a need for much substance. In general, half-life refers to how long it takes for the measured level to halve.
